Laboratory results published in patent US20200270225A1, “Chiral Diacylhydrazine Ligands for Modulating the Expression of Exogenous Genes via an Ecdysone Receptor Complex” (Intrexon Corporation, priority 2007, published 2020).
Where two headings read alike, the source gives them in different places.

Experiments:
[1] = target: T1, [V390I/Y410E/E274V]-CfEcR (Choristoneura fumiferana, UniProt O77240); format: cell-based; conditions: 3T3 Cells; for RMFI (relative maximum fold induction): relative to GS-E ligand
T1 construct: assay construct b835
Procedure: (§1) Cellular gene switch assays were performed by transiently transfecting the following constructs in mouse embryonic fibroblast cells (NIH3T3). The wild-type D, E and F domains from Choristoneura fumiferana EcR or its V390I/Y410E/E274V mutant were fused to GAL4-DBD and placed under the control of the CMV promoter in the pBIND vector (Promega Corporation, Madison, Wis., USA). The DEF domains of EcRs shown were amplified using primers designed based on 20-25 nt sequences at the 5′ and 3′ ends. Restriction enzyme sites EcoR I/BamH I and Xba I were added to 5′ and 3′ primers respectively. The PCR products were digested with appropriate restriction enzymes and cloned into pBIND vector. The EcR LBDs cloned into pBIND vector were verified by sequencing. A chimeric RXR from Homo sapiens RXRP and Locusta migratoria RXR, fused to VP16-AD and placed under the control of an SV40e promoter, was constructed as previously described (Kumar P & Katakam A in Gene Transfer, Friedmann T and Rossi J, eds, pp. 643-651 (2007), Cold Spring Harbor Laboratory Press, Cold Spring Harbor, N.Y.). The inducible luciferase reporter plasmid pFRLuc (Stratagene Cloning Systems, La Jolla, Calif., USA), contains five copies of the GAL4 response element and a synthetic minimal promoter.
(§2) NIH3T3 cells were maintained at 37′C and 5% CO2 in Dulbecco's modified Eagle's medium (DMEM) supplemented with 10% bovine calf serum, both obtained from Mediatech Inc., Manassas, Va. Cells were planted in a 96-well plate at a density of 2,500 cells/well in 50 μL of growth medium. The following day cells were first treated with 35 μL of serum-free DMEM containing dimethyl sulfoxide (DMSO; control) or a DMSO solution containing ligand. Cells were then transfected with 15 μl of serum-free DMEM containing 0.04 μg of EcR construct, 0.04 ug of RXR construct, and 0.16 μg of luciferase reporter construct per well, using SuperFect™ transfection reagent (Qiagen Inc., Valencia, Calif., USA) according to the manufacturer's instructions. Ligands were tested at 8 doses from 0.01-33 μM and the final DMSO concentration was 0.33% in both control and treatment wells. After a 48 hour post-treatment and transfection incubation, the cells were assayed for luciferase activity using the Bright-Glo™ Luciferase Assay System (Promega Corporation, Madison, Wis., USA) following the manufacturer's instructions. EC50 values were measured minimally in duplicate.
(§3) Luciferase reporter gene expression was measured 48 h after cell treatment using Bright-Glo™ Luciferase Assay System from Promega (E2650). Luminescence was detected at room temperature using a Dynex MLX microtiter plate luminometer.
(§4) Each assay was conducted in two separate wells, and the two values were averaged. Fold inductions were calculated by dividing relative light units (“RLU”) in ligand treated cells with RLU in DMSO treated cells. EC50s were calculated from dose response data using a three-parameter logistic model. Relative Max FI was determined as the maximum fold induction of the tested ligand (an embodiment of the invention) observed at any concentration relative to the maximum fold induction of GS™-E ligand (3,5-dimethyl-benzoic acid N-tert-butyl-N′-(2-ethyl-3-methoxy-benzoyl)-hydrazide) observed at any concentration.

[2] = target: wild-type Choristoneura fumiferana EcR (D, E and F domains) (Choristoneura fumiferana, UniProt O77240); format: cell-based; conditions: WT-CtEcR, 3T3 Cells; for RMFI (relative maximum fold induction): relative to GS-E ligand
Procedure: as §1, §2, §3, §4

## CCCC(N(NC(=O)c1ccccc1Cl)C(=O)c1cc(C)cc(C)c1)C(C)(C)C (racemic) [rac-6]
[1]; rac, read-out: EC50
  EC50: 1.2 nM
[1]; rac
  RMFI (relative maximum fold induction): 0.95
[2]; rac, read-out: EC50
  EC50: 59 nM
[2]; rac
  RMFI (relative maximum fold induction): 0.72

## CCC[C@H](N(NC(=O)c1ccccc1C)C(=O)c1cc(C)cc(C)c1)C(C)(C)C [Example 33, (S)-3,5-Dimethyl-benzoic acid N-(1-tert-butyl-butyl)-N′-(2-methyl-benzoyl)-hydrazide]
[1]; S
  EC50: ~400 nM
  RMFI (relative maximum fold induction): 0.48
[2]; S
  EC50: ~3300 nM
  RMFI (relative maximum fold induction): 0.20

## CCCC(N(NC(=O)c1cc(C)oc1C)C(=O)c1cc(C)cc(C)c1)C(C)(C)C (racemic) [rac-26]
[1]; rac, read-out: EC50
  EC50: 84 nM
[1]; rac
  RMFI (relative maximum fold induction): 0.97
[2]; rac, read-out: EC50
  EC50: 2140 nM
[2]; rac
  RMFI (relative maximum fold induction): 0.76

## CCC[C@H](N(NC(=O)c1ccccc1Cl)C(=O)c1cc(C)cc(C)c1)C(C)(C)C [Example 35, (S)-3,5-Dimethyl-benzoic acid N-(1-tert-butyl-butyl)-N′-(2-chloro-benzoyl)-hydrazide]
[1]; S
  EC50: ~20 nM
  RMFI (relative maximum fold induction): 0.77
[2]; S
  EC50: ~1000 nM
  RMFI (relative maximum fold induction): 0.44

## CCC[C@H](C1CCCCC1)N(NC(=O)c1cccc(OC)c1)C(=O)c1cc(C)cc(C)c1 [Example 54, (R)-3,5-Dimethyl-benzoic acid N-(1-cyclohexyl-butyl)-N′-(3-methoxy-benzoyl)-hydrazide]
[1]; R
  EC50: 474 nM
  RMFI (relative maximum fold induction): 0.44
[2]; R
  EC50: ~3300 nM
  RMFI (relative maximum fold induction): 0.19

## CCCC(N(NC(=O)c1c(Cl)cccc1Cl)C(=O)c1cc(C)cc(C)c1)C(C)(C)C (racemic) [rac-3]
[1]; rac, read-out: EC50
  EC50: 12.2 nM
[1]; rac
  RMFI (relative maximum fold induction): 0.97
[2]; rac, read-out: EC50
  EC50: 100 nM

## Cc1cc(C)cc(C(=O)N(NC(=O)OCc2ccccc2)[C@H](CCCO)C(C)(C)C)c1 [Example 64, (R)—N′-(1-tert-Butyl-4-hydroxy-butyl)-N′-(3,5-dimethyl-benzoyl)-hydrazine carboxylic Acid benzyl ester]
[1]; R
  EC50: ~8000 nM
  RMFI (relative maximum fold induction): 0.33
[2]; R
  EC50: > 33000 nM
  RMFI (relative maximum fold induction): 0.02

## CCCC(N(NC(=O)c1ccc(C)cc1)C(=O)c1cc(C)cc(C)c1)C(C)(C)C (racemic) [rac-11]
[1]; rac, read-out: EC50
  EC50: 6.3 nM
[1]; rac
  RMFI (relative maximum fold induction): 0.73
[2]; rac, read-out: EC50
  EC50: 89 nM
[2]; rac
  RMFI (relative maximum fold induction): 0.66

## CCCC(N(NC(=O)c1cc(F)cc(F)c1)C(=O)c1cc(C)cc(C)c1)C(C)(C)C (racemic) [rac-18]
[1]; rac, read-out: EC50
  EC50: ~3 nM
[1]; rac
  RMFI (relative maximum fold induction): 1.00
[2]; rac, read-out: EC50
  EC50: 30.5 nM
[2]; rac
  RMFI (relative maximum fold induction): 0.26

## CCC[C@@H](C1CCCCC1)N(NC(=O)c1cccc(OC)c1)C(=O)c1cc(C)cc(C)c1 [Example 58, (S)-3,5-Dimethyl-benzoic acid N-(1-cyclohexyl-butyl)-N′-(3-methoxy-benzoyl)-hydrazide]
[1]; S
  EC50: 121 nM
  RMFI (relative maximum fold induction): 0.42
[2]; S
  EC50: ~3300 nM
  RMFI (relative maximum fold induction): 0.25

## CCCC(N(NC(=O)c1ccc(CC)cc1)C(=O)c1cc(C)cc(C)c1)C(C)(C)C (racemic) [rac-12]
[1]; rac, read-out: EC50
  EC50: ~0.6 nM
[1]; rac
  RMFI (relative maximum fold induction): 0.96
[2]; rac, read-out: EC50
  EC50: ~20 nM
[2]; rac
  RMFI (relative maximum fold induction): 0.79

## CCC[C@H](N(NC(=O)c1c(Cl)cccc1Cl)C(=O)c1cc(C)cc(C)c1)C(C)(C)C [Example 41, (S)-3,5-Dimethyl-benzoic acid N-(1-tert-butyl-butyl)-N′-(2,6-dichloro-benzoyl)-hydrazide]
[1]; S
  EC50: ~700 nM
  RMFI (relative maximum fold induction): 0.62
[2]; S
  EC50: ~3300 nM
  RMFI (relative maximum fold induction): 0.10

## CCCC(N(NC(=O)c1cccc2ccccc12)C(=O)c1cc(C)cc(C)c1)C(C)(C)C (racemic) [rac-23]
[1]; rac, read-out: EC50
  EC50: 66 nM
[1]; rac
  RMFI (relative maximum fold induction): 0.84
[2]; rac, read-out: EC50
  EC50: 521 nM
[2]; rac
  RMFI (relative maximum fold induction): 0.60

## CCC[C@H](N(NC(=O)c1ccccc1Br)C(=O)c1cc(C)cc(C)c1)C(C)(C)C [Example 36, (S)-3,5-Dimethyl-benzoic acid N′-(2-bromo-benzoyl)-N-(1-tert-butyl-butyl)-hydrazide]
[1]; S
  EC50: 433 nM
  RMFI (relative maximum fold induction): 0.36
[2]; S
  EC50: ~3300 nM
  RMFI (relative maximum fold induction): 0.11

## CCC[C@@H](N(NC(=O)c1cc(C)oc1C)C(=O)c1cc(C)cc(C)c1)C(C)(C)C [Example 26, (R)-3,5-Dimethyl-benzoic acid N-(1-tert-butyl-butyl)-N′-(2,5-dimethyl-furan-3-carbonyl)-hydrazide]
[1]; R
  EC50: 99.4 nM
  RMFI (relative maximum fold induction): 0.95
[2]; R
  EC50: ~1000 nM
  RMFI (relative maximum fold induction): 1.16

## CCCC(N(NC(=O)c1ccc2c(c1C)OCO2)C(=O)c1cc(C)cc(C)c1)C(C)(C)C (racemic) [rac-20]
[1]; rac, read-out: EC50
  EC50: 12.1 nM
[1]; rac
  RMFI (relative maximum fold induction): 0.92
[2]; rac, read-out: EC50
  EC50: 99.3 nM
[2]; rac
  RMFI (relative maximum fold induction): 0.90

## CCC[C@@H](N(NC(=O)c1ccc(Cl)nc1)C(=O)c1cc(C)cc(C)c1)C(C)(C)C [Example 28, (R)-3,5-Dimethyl-benzoic acid N-(1-tert-butyl-butyl)-N′-(6-chloro-pyridine-3-carbonyl)-hydrazide]
[1]; R
  EC50: ~20 nM
  RMFI (relative maximum fold induction): 0.78
[2]; R
  EC50: 243 nM
  RMFI (relative maximum fold induction): 0.38

## CCC[C@@H](N(NC(=O)c1cccs1)C(=O)c1cc(C)cc(C)c1)C(C)(C)C [Example 25, (R)-3,5-Dimethyl-benzoic acid N-(1-tert-butyl-butyl)-N′-(thiophene-2-carbonyl)-hydrazide]
[1]; R
  EC50: ~20 nM
  RMFI (relative maximum fold induction): 0.72
[2]; R
  EC50: 432 nM
  RMFI (relative maximum fold induction): 0.42

## CCCC(N(NC(=O)c1ccc(Cl)cc1)C(=O)c1cc(C)cc(C)c1)C(C)(C)C (racemic) [rac-14]
[1]; rac, read-out: EC50
  EC50: ~20 nM
[1]; rac
  RMFI (relative maximum fold induction): 0.83
[2]; rac, read-out: EC50
  EC50: ~200 nM
[2]; rac
  RMFI (relative maximum fold induction): 0.46

## CCCC(N(NC(=O)c1cccc(OC)c1)C(=O)c1cc(C)cc(C)c1)C(C)(C)C (racemic) [rac-9]
[1]; rac, read-out: EC50
  EC50: 7.1 nM
[1]; rac
  RMFI (relative maximum fold induction): 0.63
[2]; rac, read-out: EC50
  EC50: 304 nM
[2]; rac
  RMFI (relative maximum fold induction): 0.84

## CCC[C@H](N(NC(=O)c1ccc(C)cc1)C(=O)c1cc(C)cc(C)c1)C(C)(C)C [Example 38, (S)-3,5-Dimethyl-benzoic acid N-(1-tert-butyl-butyl)-N′-(4-methyl-benzoyl)-hydrazide]
[1]; S
  EC50: 341 nM
  RMFI (relative maximum fold induction): 0.44
[2]; S
  EC50: 2170 nM
  RMFI (relative maximum fold induction): 0.25

## C=CC[C@@H](N(NC(=O)OCc1ccccc1)C(=O)c1cc(C)cc(C)c1)C(C)(C)C [Example 1.5, (R)—N′-(1-tert-butyl-but-3-enyl)-N′-(3,5-dimethyl-benzoyl)-hydrazinecarboxylic acid benzyl ester]
[1]; R
  EC50: ~2000 nM
  RMFI (relative maximum fold induction): 0.36
[2]; R
  EC50: > 10000 nM
  RMFI (relative maximum fold induction): 0.01

## CCC[C@H](N(NC(=O)c1cc(OC)c(C)c(OC)c1)C(=O)c1cc(C)cc(C)c1)C(C)(C)C [Example 42, (S)-3,5-Dimethyl-benzoic acid N-(1-tert-butyl-butyl)-N′-(3,5-dimethoxy-4-methyl-benzoyl)-hydrazide]
[1]; S
  EC50: ~7000 nM
  RMFI (relative maximum fold induction): 0.08
[2]; S
  EC50: > 10000 nM

## CCCC(N(NC(=O)c1cccc(Cl)c1)C(=O)c1cc(C)cc(C)c1)C(C)(C)C (racemic) [rac-10]
[1]; rac, read-out: EC50
  EC50: 23.9 nM
[1]; rac
  RMFI (relative maximum fold induction): 0.86
[2]; rac, read-out: EC50
  EC50: ~100 nM
[2]; rac
  RMFI (relative maximum fold induction): 0.50
